Data on five molecules can be found in patent US9850247B2 (Almac Discovery Limited, priority 2013, dated 2017).

Data set [1] concerns phospho-cdc2 (Tyr15) in HT-29 cells. Kind of data set: Effect on phosphorylation of cdc2 at Tyr15, PathScan ELISA (Method 2). It is filed as cell-based. Particulars: Homo sapiens, 8 h, eight hours incubation, read-out: HT29 pCDC2 method 2. The procedure:
Method 2: Determining the Effect of Compounds on the phosphorylation of cdc2 at Tyr15
The colorectal cancer cell lines HT-29 and HCT-116 were purchased from the ATCC and routinely maintained in McCoy's Medium (Invitrogen) supplemented with 10% Foetal Calf Serum.
The cells were trypsinised from their growing vessel and counted, 100 μL of cell suspension containing 6000 cells was pipetted into black 96 well Co-star plates and incubated overnight to allow adherence to the surface at a temperature of 37° C. and an atmosphere of 5% CO2. Test compounds were formulated in DMSO and diluted in foetal calf serum supplemented medium. Incubating medium was removed by aspiration and diluted drug supplemented medium added to each well.
The plate was returned to the incubator for an additional eight hours at 37° C. and an atmosphere of 5% CO2. Post incubation, the drug supplemented medium was aspirated from each well and the cells were washed once in ice-cold phosphate buffered saline (PBS). 100 μL of cell lysis buffer (Cell Signalling Technologies #9803) containing 20 mM Tris, 150 mM NaCl, 1 mM EDTA, 1 mM EGTA, 1% Triton-X100, 2.5 mM sodium pyrophosphate, 1 mM glycerophosphate, 1 mM Na3VO4 and 1 μg/mL leupeptin was added to each well of the 96 well plate and incubated at 4° C. for 30 min. The samples on the plate were snap frozen at −80° C. until required. Immediately before the continuation of the assay, the sample plate was thawed and centrifuged at 4° C. for 10 min and the supernatant transferred to secondary tubes or 96 well plate.
Cell supernatant was mixed in a ratio of 1:1 with sample dilutent buffer and vortexed for one minute. 100 μL of diluted sample was pipetted into pre-coated plates containing a rabbit polyclonal antibody for phospho-cdc2 (Tyr15) (Cell Signalling Technologies PathScan kit #7176). The plate was sealed and incubated overnight at 4° C.
The plate seal was removed and the well contents aspirated, followed by 3×5 min washes with 200 μL of diluted wash buffer. Between each wash the plate was tapped firmly onto blotting paper to ensure the removal of all kit solution. 100 μL of kit detection antibody was added to each well and the plate re-sealed and incubated at 37° C. for 1 h. Post incubation the plate was washed and processed in a similar manner to that previously described.
100 μL of horseradish peroxidise-linked secondary antibody was added to each test well, the plate sealed and incubated for thirty minutes at 37° C. Post incubation, the plate was washed as previously stated, followed by the addition of 100 μL of 3,3′,5,5′ tetramethylbenzidine (TMB reagent). The plate was sealed and incubated at RT for 30 min.
100 μL of stop solution was added to each well and the underside of the plate wiped with a lint-free tissue, prior to spectrophotometric determination. Absorbance from each well was read at 450 nm within 30 min of the addition of the stop solution.
The percentage of phospho-cdc2 was calculated compared to DMSO control and plotted versus the concentration of inhibitor using GraphPad Prism. Data was fitted using non-linear regression analysis and IC50 values generated.
(In general: An ELISA detects its analyte on a solid surface through an enzyme-linked reagent.)

A short description of data set [2]: CLint estimates using human liver microsomes (Method 4). Type of data set: in vitro ADME. Particulars: pH 7.4, 1 μM compound, read-out: Mics - CLint (HLM CLint). A digest of the protocol: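 Compound at 1 μM (0.1% DMSO) incubated with human liver microsomes (0.5 mg protein/mL) in 0.1 M phosphate pH 7.4 at 37 °C, started with 1 mM NADPH. Samples taken 2–50 min, quenched in methanol, measured by LC/MS/MS (MRM). Half-life and CLint derived from the slope of ln peak area versus time.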

The target of data set [3] is T1, human ether a go-go related gene (hERG) K′ channel (Homo sapiens, UniProt Q12809).
T1 construct: Essen BioScience
Kind of data set: hERG activity, IonWorks patch clamp electrophysiology (Method 6). It is filed as cell-based. The procedure: Method 6: Determination of hERG Activity
Compounds were tested for inhibition of the human ether a go-go related gene (hERG) K′ channel using IonWorks patch clamp electrophysiology at Essen BioScience. 8-Point concentration-response curves of the effect of compound on hERG current as a percentage of pre-compound signal were generated using 3-fold serial dilutions from 11 μM and results are reported as IC50 in μM.
For orientation: hERG is a cardiac potassium channel; its block is linked to QT prolongation.

A value given as a limit tells only on which side of the number the result lay.

T1 sequence (Q12809 whole entry): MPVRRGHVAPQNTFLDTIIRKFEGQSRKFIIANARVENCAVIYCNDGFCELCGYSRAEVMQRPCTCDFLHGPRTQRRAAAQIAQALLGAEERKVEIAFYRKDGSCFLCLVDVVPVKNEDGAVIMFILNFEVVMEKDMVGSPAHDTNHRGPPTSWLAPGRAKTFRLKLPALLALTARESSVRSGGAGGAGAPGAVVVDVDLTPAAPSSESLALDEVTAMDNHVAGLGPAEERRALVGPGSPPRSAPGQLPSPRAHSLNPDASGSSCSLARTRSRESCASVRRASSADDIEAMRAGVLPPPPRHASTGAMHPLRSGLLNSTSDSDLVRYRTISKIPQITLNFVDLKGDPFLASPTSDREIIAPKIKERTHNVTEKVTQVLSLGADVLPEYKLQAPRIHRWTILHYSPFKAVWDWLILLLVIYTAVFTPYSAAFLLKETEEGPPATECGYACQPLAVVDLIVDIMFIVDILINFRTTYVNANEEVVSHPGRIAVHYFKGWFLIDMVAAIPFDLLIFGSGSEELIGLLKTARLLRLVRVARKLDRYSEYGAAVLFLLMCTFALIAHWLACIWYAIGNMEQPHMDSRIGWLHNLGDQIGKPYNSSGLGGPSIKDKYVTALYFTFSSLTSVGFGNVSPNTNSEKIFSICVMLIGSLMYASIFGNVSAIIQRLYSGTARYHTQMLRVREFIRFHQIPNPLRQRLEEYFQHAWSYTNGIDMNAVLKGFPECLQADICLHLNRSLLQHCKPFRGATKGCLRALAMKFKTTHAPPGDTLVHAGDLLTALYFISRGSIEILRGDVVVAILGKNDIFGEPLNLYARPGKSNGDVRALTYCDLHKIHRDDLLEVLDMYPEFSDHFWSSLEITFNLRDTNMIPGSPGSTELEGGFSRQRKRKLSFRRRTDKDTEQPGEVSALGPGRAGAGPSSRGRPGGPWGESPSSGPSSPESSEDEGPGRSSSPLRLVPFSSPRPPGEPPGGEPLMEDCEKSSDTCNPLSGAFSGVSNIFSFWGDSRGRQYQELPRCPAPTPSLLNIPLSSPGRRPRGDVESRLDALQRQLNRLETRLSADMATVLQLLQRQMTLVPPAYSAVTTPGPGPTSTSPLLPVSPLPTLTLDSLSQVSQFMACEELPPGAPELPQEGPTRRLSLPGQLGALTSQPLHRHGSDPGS

In the case of `C[C@@H]1CN(c2ccc(Nc3ncc4c(n3)N(C)CN(c3c(Cl)cccc3Cl)C4=O)cc2)CCN1` [Example 16, (R)-3-(2,6-Dichlorophenyl)-1-methyl-7-((4-(3-methylpiperazin-1-yl)phenyl)amino)-2,3-dihydropyrimido[4,5-d]pyrimidin-4(1H)-one], the values for the IC50 in data set [1] and in data set [3] were ≤ 100 nM and > 10000 nM, respectively. Further, the microsomal CLint at 1 μM in data set [2] is ≤ 15 µL/min/mg.

For `CN1CN(c2c(Cl)cccc2Cl)C(=O)c2cnc(Nc3ccc(N4CCNCC4)cc3)nc21` [Example 1, 3-(2,6-Dichlorophenyl)-1-methyl-7-((4-(piperazin-1-yl)phenyl)amino)-2,3-dihydropyrimido[4,5-d]pyrimidin-4(1H)-one], the IC50 in data set [1] was 100 to 1000 nM; in data set [3], > 10000 nM. In data set [2], the microsomal CLint at 1 μM is 15 to 50 µL/min/mg.

Turning to `CNCc1cc(Nc2ncc3c(n2)N(C)CN(c2c(Cl)cccc2Cl)C3=O)ccc1N1CCOCC1` [Example 5, 3-(2,6-Dichlorophenyl)-1-methyl-7-((3-((methylamino)methyl)-4-morpholinophenyl)amino)-2,3-dihydropyrimido[4,5-d]pyrimidin-4(1H)-one], the IC50 in data set [1] was 100 to 1000 nM. The microsomal CLint at 1 μM in data set [2] was ≤ 15 µL/min/mg. Further, the “hERG inhibition compared with prior art analogues” value in data set [3] (versus analogues from WO2013126656, WO2013013031 and WO2013059485) was “lower hERG inhibition”.

For `Cc1cc(Nc2ncc3c(n2)N(C)CN(c2c(Cl)cccc2Cl)C3=O)ccc1N1CCNCC1` [Example 6, 3-(2,6-Dichlorophenyl)-1-methyl-7-((3-methyl-4-(piperazin-1-yl)phenyl)amino)-2,3-dihydropyrimido[4,5-d]pyrimidin-4(1H)-one], the IC50 was ≤ 100 nM in data set [1] and > 10000 nM in data set [3]. In addition, the microsomal CLint at 1 μM in data set [2] was 15 to 50 µL/min/mg.

In the case of `CN1CN(c2c(Cl)cccc2Cl)C(=O)c2cnc(Nc3ccc(N4CC5CCC(C4)N5)cc3)nc21` [Example 74, 7-((4-(3,8-diazabicyclo[3.2.1]octan-3-yl)phenyl)amino)-3-(2,6-dichlorophenyl)-1-methyl-2,3-dihydropyrimido [4,5-d]pyrimidin-4(1H)-one], in data set [1], the IC50 was in the range of 100 to 1000 nM. For the same molecule, the microsomal CLint at 1 μM in data set [2] is ≤ 15 µL/min/mg.
